Laboratory results published in patent US8673910B2, “Proteasome inhibitors for selectively inducing apoptosis in cancer cells” (H. Lee Moffitt Cancer Center and Research Institute, priority 2008, dated 2014).

How the values were obtained:
[1] = target: T1, trypsin-like (T-L) activity of purified 20S rabbit proteasome (Oryctolagus cuniculus, UniProt G1SWK8); assay: Proteolytic activity of purified 20S proteasome, fluorogenic substrate Bz-Val-Gly-Arg-AMC; format: biochemical; conditions: Table 4: means of 3 experiments ± standard error, read-out: IC50 for T-L activity in vitro
T1 construct: purchased Boston Biochem
Experimental: (§1) In the high-throughput screen, the inventors used fluorogenic peptides as substrates to assay 3,229 compounds of the NCI Diversity, Natural Product, Challenge and Mechanistic Sets for inhibitory activity against the proteolytic activities of the purified 20S proteasome, resulting in the identification of PI-083. […] After incubation, production of hydrolyzed 7-amido-4-methyl-coumarin (AMC) groups was measured using a WALLAC Victor^2 1420 Multilabel Counter with an excitation filter of 355 nm and an emission filter of 460 nm (Perkin Elmer Life Sciences, Turku, Finland).

[2] = target: T2, PGPH activity of purified 20S rabbit proteasome (Oryctolagus cuniculus, UniProt A0A5F9DQW2); assay: Proteolytic activity of purified 20S proteasome, fluorogenic substrate Z-Leu-Leu-Glu-AMC; format: biochemical; conditions: Table 4: means of 3 experiments ± standard error, read-out: IC50 for PGPH-like activity in vitro
T2 construct: purchased Boston Biochem
Experimental: as §1

T2 sequence (A0A5F9DQW2 1-212): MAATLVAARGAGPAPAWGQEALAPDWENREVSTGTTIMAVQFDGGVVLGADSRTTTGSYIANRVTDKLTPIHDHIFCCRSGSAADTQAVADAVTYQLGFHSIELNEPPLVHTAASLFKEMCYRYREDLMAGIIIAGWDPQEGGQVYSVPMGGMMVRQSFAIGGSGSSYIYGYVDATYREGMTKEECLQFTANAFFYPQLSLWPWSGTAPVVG
T1 sequence (G1SWK8 1-271): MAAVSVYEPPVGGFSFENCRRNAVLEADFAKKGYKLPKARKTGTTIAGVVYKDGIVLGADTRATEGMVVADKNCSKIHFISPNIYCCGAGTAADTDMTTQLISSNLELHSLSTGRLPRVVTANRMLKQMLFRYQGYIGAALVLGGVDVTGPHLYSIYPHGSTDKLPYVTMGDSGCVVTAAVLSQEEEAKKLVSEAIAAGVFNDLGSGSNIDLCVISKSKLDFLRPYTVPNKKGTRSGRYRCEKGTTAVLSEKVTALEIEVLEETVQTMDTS

## CC(C)C[C@H](NC(=O)[C@H](Cc1ccccc1)NC(=O)c1cnccn1)B(O)O [Bortezomib, reference compound]
[1]
  IC50: 7.02 µM
[2]
  IC50: 0.475 µM
